ChEMBL document CHEMBL3872253, “Synthesis and in vitro antiproliferative activity of C5-benzyl substituted 2-amino-pyrrolo[2,3-d]pyrimidines as potent Hsp90 inhibitors” (Bioorg Med Chem Lett, 2017)
pIC50: −log10 of the molar value.

Tests used:
[1] = biological target: T1, Heat shock protein HSP90 (Homo sapiens) (UniProt P07900+P08238); test: Inhibition of Hsp90 in human MCF7 cells assessed as proteasomal degradation of Her2 after 24 hrs by Western blot analysis; type: cell-based
[2] = biological target: Heat shock protein HSP 90-alpha (Homo sapiens, UniProt P07900); test: Inhibition of FITC-labeled geldanamycin binding to human Hsp90alpha by fluorescence polarization assay
[3] = biological target: T1, Heat shock protein HSP90 (Homo sapiens); test: Inhibition of Hsp90 in human MCF7 cells assessed as proteasomal degradation of EGFR after 24 hrs by Western blot analysis; type: cell-based
[4] = biological target: T1, Heat shock protein HSP90 (Homo sapiens); test: Inhibition of Hsp90 in human MCF7 cells assessed as proteasomal degradation of Cdk4 after 24 hrs by Western blot analysis; type: cell-based
[5] = biological target: T1, Heat shock protein HSP90 (Homo sapiens); test: Inhibition of HSP90 in human MCF7 cells assessed as increase in expression level of Hsp70 after 24 hrs by Western blot analysis; type: cell-based
[6] = biological target: T1, Heat shock protein HSP90 (Homo sapiens); test: Inhibition of Hsp90 in human MCF7 cells assessed as proteasomal degradation of Akt after 24 hrs by Western blot analysis; type: cell-based
[7] = Growth inhibition of human SKBR3 cells at 10 uM after 72 hrs by MTT assay; type: functional; conditions: SK-BR-3, 72 h
[8] = Growth inhibition of human HFF1 cells at 10 uM after 72 hrs by MTT assay; type: cell-based, HFF-1
[9] = Growth inhibition of human HCT116 cells at 10 uM after 72 hrs by MTT assay; type: functional; conditions: HCT-116, 72 h
[10] = Growth inhibition of human MCF7 cells at 10 uM after 72 hrs by MTT assay; type: functional; conditions: MCF7, 72 h
cells [11] = conditions: Homo sapiens, HCT-15, 48 h
Description: Cytotoxicity against human HCT15 cells after 48 hrs by sulforhodamine B assay

cells [12] = conditions: Homo sapiens, SK-MEL-5, 48 h
Description: Cytotoxicity against human SK-MEL-5 cells after 48 hrs by sulforhodamine B assay

[13] = Cytotoxicity against human Hs 578T cells after 48 hrs by sulforhodamine B assay; type: functional
[14] = Cytotoxicity against human NCI-ADR-RES cells after 48 hrs by sulforhodamine B assay; type: functional
cells [15] = conditions: Homo sapiens, EKVX, 48 h
Description: Cytotoxicity against human EKVX cells after 48 hrs by sulforhodamine B assay

cells [16] = conditions: Homo sapiens, SK-OV-3, 48 h
Description: Cytotoxicity against human SKOV3 cells after 48 hrs by sulforhodamine B assay

cells [17] = conditions: Homo sapiens, NCI-H23, 48 h
Description: Cytotoxicity against human NCI-H23 cells after 48 hrs by sulforhodamine B assay

cells [18] = conditions: Homo sapiens, HCT-116, 48 h
Description: Cytotoxicity against human HCT116 cells after 48 hrs by sulforhodamine B assay

cells [19] = conditions: Homo sapiens, IGROV-1, 48 h
Description: Cytotoxicity against human IGROV1 cells after 48 hrs by sulforhodamine B assay

cells [20] = conditions: Homo sapiens, TK-10, 48 h
Description: Cytotoxicity against human TK10 cells after 48 hrs by sulforhodamine B assay

cells [21] = conditions: Homo sapiens, LOX IMVI, 48 h
Description: Cytotoxicity against human LOXIMVI cells after 48 hrs by sulforhodamine B assay

[22] = Cytotoxicity against human A549/ATCC cells after 48 hrs by sulforhodamine B assay; type: functional; conditions: A549, 48 h
cells [23] = conditions: Homo sapiens, RPMI-8226, 48 h
Description: Cytotoxicity against human RPMI8226 cells after 48 hrs by sulforhodamine B assay

cells [24] = conditions: Homo sapiens, MDA-MB-231, 48 h
Description: Cytotoxicity against human MDA-MB-231 cells after 48 hrs by sulforhodamine B assay

cells [25] = conditions: Homo sapiens, SK-MEL-28, 48 h
Description: Cytotoxicity against human SK-MEL-28 cells after 48 hrs by sulforhodamine B assay

cells [26] = conditions: Homo sapiens, SW-620, 48 h
Description: Cytotoxicity against human SW620 cells after 48 hrs by sulforhodamine B assay

cells [27] = conditions: Homo sapiens, HOP-62, 48 h
Description: Cytotoxicity against human HOP62 cells after 48 hrs by sulforhodamine B assay

cells [28] = conditions: Homo sapiens, K562, 48 h
Description: Cytotoxicity against human K562 cells after 48 hrs by sulforhodamine B assay

cells [29] = conditions: Homo sapiens, MCF7, 48 h
Description: Cytotoxicity against human MCF7 cells after 48 hrs by sulforhodamine B assay

cells [30] = conditions: Homo sapiens, HCC 2998, 48 h
Description: Cytotoxicity against human HCC2998 cells after 48 hrs by sulforhodamine B assay

cells [31] = conditions: Homo sapiens, COLO 205, 48 h
Description: Cytotoxicity against human COLO205 cells after 48 hrs by sulforhodamine B assay

cells [32] = conditions: Homo sapiens, UACC-257, 48 h
Description: Cytotoxicity against human UACC257 cells after 48 hrs by sulforhodamine B assay

cells [33] = conditions: Homo sapiens, HOP-92, 48 h
Description: Cytotoxicity against human HOP92 cells after 48 hrs by sulforhodamine B assay

cells [34] = conditions: Homo sapiens, KM12, 48 h
Description: Cytotoxicity against human KM12 cells after 48 hrs by sulforhodamine B assay

[35] = Cytotoxicity against human SR cells after 48 hrs by sulforhodamine B assay; type: functional
cells [36] = conditions: Homo sapiens, DU-145, 48 h
Description: Cytotoxicity against human DU145 cells after 48 hrs by sulforhodamine B assay

cells [37] = conditions: Homo sapiens, T47D, 48 h
Description: Cytotoxicity against human T47D cells after 48 hrs by sulforhodamine B assay

cells [38] = conditions: Homo sapiens, CCRF-CEM, 48 h
Description: Cytotoxicity against human CCRF-CEM cells after 48 hrs by sulforhodamine B assay

cells [39] = conditions: Homo sapiens, MDA-MB-435, 48 h
Description: Cytotoxicity against human MDA-MB-435 cells after 48 hrs by sulforhodamine B assay

cells [40] = conditions: Homo sapiens, SN12C, 48 h
Description: Cytotoxicity against human SN12C cells after 48 hrs by sulforhodamine B assay

cells [41] = conditions: Homo sapiens, HL-60, 48 h
Description: Cytotoxicity against human HL-60(TB) cells after 48 hrs by sulforhodamine B assay

cells [42] = conditions: Homo sapiens, ACHN, 48 h
Description: Cytotoxicity against human ACHN cells after 48 hrs by sulforhodamine B assay

cells [43] = conditions: Homo sapiens, SF-295, 48 h
Description: Cytotoxicity against human SF295 cells after 48 hrs by sulforhodamine B assay

cells [44] = conditions: Homo sapiens, SNB-75, 48 h
Description: Cytotoxicity against human SNB75 cells after 48 hrs by sulforhodamine B assay

cells [45] = conditions: Homo sapiens, OVCAR-5, 48 h
Description: Cytotoxicity against human OVCAR5 cells after 48 hrs by sulforhodamine B assay

cells [46] = conditions: Homo sapiens, SK-MEL-2, 48 h
Description: Cytotoxicity against human SK-MEL-2 cells after 48 hrs by sulforhodamine B assay

cells [47] = conditions: Homo sapiens, MOLT-4, 48 h
Description: Cytotoxicity against human MOLT4 cells after 48 hrs by sulforhodamine B assay

cells [48] = conditions: Homo sapiens, Malme-3M, 48 h
Description: Cytotoxicity against human MALME-3M cells after 48 hrs by sulforhodamine B assay

cells [49] = conditions: Homo sapiens, SNB-19, 48 h
Description: Cytotoxicity against human SNB19 cells after 48 hrs by sulforhodamine B assay

cells [50] = conditions: Homo sapiens, HT-29, 48 h
Description: Cytotoxicity against human HT-29 cells after 48 hrs by sulforhodamine B assay

cells [51] = conditions: Homo sapiens, A498, 48 h
Description: Cytotoxicity against human A498 cells after 48 hrs by sulforhodamine B assay

cells [52] = conditions: Homo sapiens, OVCAR-4, 48 h
Description: Cytotoxicity against human OVCAR4 cells after 48 hrs by sulforhodamine B assay

cells [53] = conditions: Homo sapiens, OVCAR-8, 48 h
Description: Cytotoxicity against human OVCAR8 cells after 48 hrs by sulforhodamine B assay

[54] = Growth inhibition of human MDA-MB-468 cells after 48 hrs by sulforhodamine B assay; type: functional; conditions: MDA-MB-468, 48 h
cells [55] = conditions: Homo sapiens, 786-0, 48 h
Description: Cytotoxicity against human 786-0 cells after 48 hrs by sulforhodamine B assay

cells [56] = conditions: Homo sapiens, OVCAR-3, 48 h
Description: Cytotoxicity against human OVCAR3 cells after 48 hrs by sulforhodamine B assay

cells [57] = conditions: Homo sapiens, PC-3, 48 h
Description: Cytotoxicity against human PC3 cells after 48 hrs by sulforhodamine B assay

cells [58] = conditions: Homo sapiens, NCI-H460, 48 h
Description: Cytotoxicity against human NCI-H460 cells after 48 hrs by sulforhodamine B assay

cells [59] = conditions: Homo sapiens, UACC-62, 48 h
Description: Cytotoxicity against human UACC62 cells after 48 hrs by sulforhodamine B assay

cells [60] = conditions: Homo sapiens, SF-539, 48 h
Description: Cytotoxicity against human SF539 cells after 48 hrs by sulforhodamine B assay

cells [61] = conditions: Homo sapiens, BT-549, 48 h
Description: Cytotoxicity against human BT549 cells after 48 hrs by sulforhodamine B assay

cells [62] = conditions: Homo sapiens, NCI-H522, 48 h
Description: Cytotoxicity against human NCI-H522 cells after 48 hrs by sulforhodamine B assay

cells [63] = conditions: Homo sapiens, M14, 48 h
Description: Cytotoxicity against human M14 cells after 48 hrs by sulforhodamine B assay

cells [64] = conditions: Homo sapiens, CAKI-1, 48 h
Description: Cytotoxicity against human Caki1 cells after 48 hrs by sulforhodamine B assay

cells [65] = conditions: Homo sapiens, U-251, 48 h
Description: Cytotoxicity against human U251 cells after 48 hrs by sulforhodamine B assay

cells [66] = conditions: Homo sapiens, SF-268, 48 h
Description: Cytotoxicity against human SF268 cells after 48 hrs by sulforhodamine B assay

cells [67] = conditions: Homo sapiens, UO-31, 48 h
Description: Cytotoxicity against human UO31 cells after 48 hrs by sulforhodamine B assay

cells [68] = conditions: Homo sapiens, RXF 393, 48 h
Description: Cytotoxicity against human RXF393 cells after 48 hrs by sulforhodamine B assay

cells [69] = conditions: Homo sapiens, NCI-H226, 48 h
Description: Cytotoxicity against human NCI-H226 cells after 48 hrs by sulforhodamine B assay

SMILES: COc1c(C)cnc(Cn2cc(Cc3ccccc3)c3c(Cl)nc(N)nc32)c1C
- inhibition [1]: Dose-dependent effect
- pIC50 [2]: 7.44
- inhibition [3]: Dose-dependent effect
- inhibition [4]: Dose-dependent effect
- inhibition [5]: Dose-dependent effect
- inhibition [6]: Dose-dependent effect

SMILES: COc1ccc(Cc2cn(Cc3ncc(C)c(OC)c3C)c3nc(N)nc(Cl)c23)cc1
- pIC50 [2]: 7.03
- inhibition at 10 µM [7]: 69.4%
- inhibition at 72 h, 10 µM [8]: 10.1%
- inhibition at 10 µM [9]: 80.9%
- inhibition at 10 µM [10]: 80.1%

SMILES: COc1c(C)cnc(Cn2cc(Cc3cccc(C)c3)c3c(Cl)nc(N)nc32)c1C
- pIC50 [2]: 7.29

SMILES: COc1cc(Cc2cn(Cc3ncc(C)c(OC)c3C)c3nc(N)nc(Cl)c23)ccc1Br
- pIC50 [2]: 7.10

SMILES: Nc1nc(Cl)c2c(Cc3ccccc3)cn(Cc3cc4c(cc3I)OCO4)c2n1
- pIC50 [2]: 6.12
- inhibition at 10 µM [7]: 63.8%
- inhibition at 72 h, 10 µM [8]: 36.2%
- inhibition at 10 µM [9]: 74.5%
- inhibition at 10 µM [10]: 74%

SMILES: COc1c(C)cnc(Cn2cc(Cc3ccc(C)cc3)c3c(Cl)nc(N)nc32)c1C
- pIC50 [2]: 7.24

SMILES: Nc1nc(Cl)c2c(Cc3ccccc3)cn(Cc3ccc4c(c3)OCO4)c2n1
- inhibition at 10 µM [7]: 4.32%
- inhibition at 72 h, 10 µM [8]: 11.2%
- inhibition at 10 µM [9]: 48.8%
- inhibition at 10 µM [10]: 54%

SMILES: COc1c(C)cnc(Cn2cc(Cc3ccc(Cl)cc3)c3c(Cl)nc(N)nc32)c1C
- pIC50 [2]: 7.32

SMILES: Nc1nc(Cl)c2c(Cc3ccccc3)cn(Cc3cc4c(cc3Br)OCO4)c2n1
- pIC50 [2]: 6.19
- inhibition at 10 µM [7]: 40.9%
- inhibition at 72 h, 10 µM [8]: 20.7%
- inhibition at 10 µM [9]: 70.4%
- inhibition at 10 µM [10]: 69.9%

SMILES: COc1c(C)cnc(Cn2cc(Cc3cccc(C(F)(F)F)c3)c3c(Cl)nc(N)nc32)c1C
- pIC50 [2]: 5.06

SMILES: COc1c(C)cnc(Cn2cnc3c(Cl)nc(N)nc32)c1C [BIIB021]
- inhibition at 10 µM [7]: 86.2%
- inhibition at 72 h, 10 µM [8]: 51.3%
- inhibition at 10 µM [9]: 71.9%
- inhibition at 10 µM [10]: 84.8%

SMILES: CC(C)NCCCn1c(Sc2cc3c(cc2I)OCO3)nc2c(N)ncnc21 [PU-H71]
- GI50 (cells [11]): 437 nM
- GI50 (cells [12]): 457 nM
- GI50 [13]: 1290 nM
- GI50 [14]: 3630 nM
- GI50 (cells [15]): 2510 nM
- GI50 (cells [16]): 45 nM
- GI50 (cells [17]): 89 nM
- GI50 (cells [18]): 63 nM
- GI50 (cells [19]): 89 nM
- GI50 (cells [20]): 162 nM
- GI50 (cells [21]): 79 nM
- GI50 [22]: 87 nM
- GI50 (cells [23]): 1510 nM
- GI50 (cells [24]): 479 nM
- GI50 (cells [25]): 417 nM
- inhibition at 10 µM [7]: 65.3%
- GI50 (cells [26]): 59 nM
- inhibition at 10 µM [9]: 78.4%
- GI50 (cells [27]): 263 nM
- GI50 (cells [28]): 71 nM
- GI50 (cells [29]): 46 nM
- GI50 (cells [30]): 282 nM
- inhibition at 10 µM [10]: 70.5%
- GI50 (cells [31]): 48 nM
- GI50 (cells [32]): 309 nM
- GI50 (cells [33]): 288 nM
- GI50 (cells [34]): 59 nM
- GI50 [35]: 60 nM
- GI50 (cells [36]): 48 nM
- GI50 (cells [37]): 155 nM
- GI50 (cells [38]): 427 nM
- GI50 (cells [39]): 91 nM
- GI50 (cells [40]): 174 nM
- GI50 (cells [41]): 63 nM
- GI50 (cells [42]): 295 nM
- GI50 (cells [43]): 145 nM
- GI50 (cells [44]): 724 nM
- GI50 (cells [45]): 3020 nM
- GI50 (cells [46]): 355 nM
- GI50 (cells [47]): 91 nM
- GI50 (cells [48]): 123 nM
- GI50 (cells [49]): 646 nM
- GI50 (cells [50]): 38 nM
- GI50 (cells [51]): 437 nM
- GI50 (cells [52]): 33100 nM
- GI50 (cells [53]): 155 nM
- GI50 [54]: 83 nM
- GI50 (cells [55]): 513 nM
- GI50 (cells [56]): 589 nM
- GI50 (cells [57]): 132 nM
- GI50 (cells [58]): 58 nM
- GI50 (cells [59]): 372 nM
- GI50 (cells [60]): 851 nM
- GI50 (cells [61]): 1510 nM
- GI50 (cells [62]): 59 nM
- GI50 (cells [63]): 234 nM
- GI50 (cells [64]): 525 nM
- GI50 (cells [65]): 129 nM
- GI50 (cells [66]): 2090 nM
- GI50 (cells [67]): 324 nM
- GI50 (cells [68]): 759 nM
- GI50 (cells [69]): 759 nM

SMILES: C=CCNC1=C2C[C@@H](C)C[C@H](OC)[C@H](O)[C@@H](C)/C=C(\C)[C@H](OC(N)=O)[C@@H](OC)/C=C\C=C(/C)C(=O)NC(=CC1=O)C2=O [TANESPIMYCIN]
- inhibition at 10 µM [7]: 88.9%
- inhibition at 72 h, 10 µM [8]: 65.5%
- inhibition at 10 µM [9]: 74.4%
- inhibition at 10 µM [10]: 79.7%
